Source: patent US20080312140A1, “Compositions and Methods for Preventing or Treating Hiv Infection” (priority 2005, published 2008)
Like-named read-outs stand apart in the source and are kept apart here. No end group written: not given here.

System: infection of CD4+ human cells (CD4 expressing Hela P4 cells) by HIV-1
Type: cell-based
Details: for IC50: FIG. 3; for relative infection inhibition activity within the peptide set: peptides assayed at 100 μg/ml, FIG. 2 / FIG. 6
Description: Biological Activity Results of C2 peptide analogs Cell Infection Inhibition Assay The assay consisted of CD4 expressing Hela P4 cells containing the […] reporter gene placed downstream the HIV-LTR promotor. These cells, were seeded 24 hours prior to viral infection at a density of 5×10^5 […] in 24 well culture plates (TPP model by Beyneix). 50 μL of virus solution prepared from CEM infected cells' supernatant, were incubated for 1 hour with the assayed peptides at the required concentrations, at 4° C. 10 μg of anti CD4 monoclonal antibodies 13B8.2 or Leu3A were used as control. After incubation the virus solution was diluted to a total volume of 1 ml and was added to the Hela P4 cells. The cells were incubated at these conditions for 3 days after which their infection rate was assayed according to the […] activity in the cells extract.
The cells were washed well, harvested and disintegrated in a buffer containing 60 mM Na2HPO4, 40 mM NaH2PO4, 10 mM KCl, 1 mM MgSO4, 50 mM β-mercaptoethanol, 2.5 mM EDTA, 0.125% NP40, 0.125% triton, 20% glycerol, 0.2 mM PMSF and 100 U/ml approtinin. The cells extract was cleaned by centrifuge at 4° C. for 15 min at 13,000 rpm. β-galactosidase activity was determined by incubation of 150 μL of total cell extract at 37° C. for 2 hours in the presence of 6 mM ONPG (O-Nitrophenyl-β-D-galactopyranoside) in a buffer containing 80 mM Na2HPO4, 1 mM β-mercaptoethanol and 10 mMMgCl2, followed by absorption measurement at 410 nm. The β-galactosidase activity was normalized according to the total protein quantity in the assay.
This figure includes, for comparison, the inhibition of the lead peptide C2-1, as determined in the cell infection inhibition assay.

[1] = average of peptides C2-2 and C2-3, Hela P4 cells, read-out: average IC50 value

Molecule | IC50 [1] [µM] | relative infection inhibition activity within the peptide set | IC50 (CD4 expressing Hela P4 cells, several concentrations, read-out: IC50 (infection inhibition)) [µM] | inhibition of infection (C3 peptides, FIG. 6: assayed at 100 μg/ml, mean of 3 assays, text: C3-25 at 100 μM) [%]
N=C(N)NCCC[C@@H]1NC(=O)CCCC(=O)N[C@@H](CCC(N)=O)C(=O)NCC(=O)N[C@@H](CO)C(=O)N[C@@H](Cc2ccccc2)C(=O)N(CC(N)=O)CCNC1=O [Peptide C2-2] | 81 ± 2 | most active |  | 
N=C(N)NCCC[C@@H]1NC(=O)CCC(=O)N[C@@H](CCC(N)=O)C(=O)NCC(=O)N[C@@H](CO)C(=O)N[C@@H](Cc2ccccc2)C(=O)N(CC(N)=O)CCNC1=O [Peptide C2-1] |  | most active | 33 | 
C3-19: backbone cyclic C3 peptide of Scheme 1 (SEQ ID NO:7) (RQGSGF; also: backbone cyclic) [Peptide C3-19] |  |  |  | 64±12
N=C(N)NCCC[C@@H]1NC(=O)CCCCC(=O)N[C@@H](CCC(N)=O)C(=O)NCC(=O)N[C@@H](CO)C(=O)N[C@@H](Cc2ccccc2)C(=O)N(CC(N)=O)CCNC1=O [Peptide C2-3] | 81 ± 2 | most active |  | 
